{"source": "patent US11702422B2", "about": "“Imidazopyridazines as modulators of IL-17” (Janssen Pharmaceutica NV, priority 2020, dated 2023)", "key": {"[1]": {"biological_target": "IL-17A(FLAG-Tagged): IL-17RA(His-Tagged) (Homo sapiens, UniProt Q16552, K93Q)", "sequence (Q16552 with tags, fused parts or gaps K93Q)": "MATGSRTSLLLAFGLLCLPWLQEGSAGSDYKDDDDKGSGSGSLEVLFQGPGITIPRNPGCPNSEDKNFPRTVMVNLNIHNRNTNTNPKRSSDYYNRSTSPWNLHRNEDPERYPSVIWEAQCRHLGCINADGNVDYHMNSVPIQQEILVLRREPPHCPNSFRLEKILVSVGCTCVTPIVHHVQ", "assay": "IL-17A(FLAG-Tagged): IL-17RA(His-Tagged) Binding Disruption Eu-HTRF Assay", "conditions": "IL-17A/IL-17RA binding disruption, simple average if tested more than once", "summary_of_the_method": "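IC50 comes from a one-site competition fit of the HTRF 665/620 nm ratio. Compound dilutions (2-fold, 22 points) were held 1 h rt with FLAG-tagged IL-17A dimer, then His-tagged IL-17RA plus Eu-cryptate anti-FLAG and D2 anti-His antibodies were added for 2 h rt.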"}, "[2]": {"tested_on": "IL-17A-induced G-CSF production in human normal keratinocyte (NHK)", "assay": "NHK Assay: IL-17A-induced G-CSF production in human normal keratinocytes", "type": "cell-based", "conditions": "Homo sapiens, Keratinocyte, 24 h, adult normal human keratinocytes, IL-17A 5 ng/mL, simple average if tested more than once", "summary_of_the_method": "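IL-17A (5 ng/mL final) was pre-incubated 1 h at rt with titrated compound and then added to adult normal human keratinocytes (5% FBS, 0.2% DMSO) for 24 h at 37° C. Supernatant G-CSF was measured by HTRF against a standard curve to derive IC50. Viability was checked by CellTiter-Glo.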"}}, "note": "pIC50: −log10 of the molar value."}
{"smiles": "O=C(CCC(F)(F)F)N[C@@H](c1cnn2cc([C@@H](NC(=O)c3ncnn3CC(F)(F)F)C3CCC(F)(F)CC3)nc2c1)C1CC1", "note": "[Example 61, N—((S)-(7-((R)-Cyclopropyl(4,4,4-trifluorobutanamido)methyl)imidazo[1,2-b]pyridazin-2-yl)(4,4-difluorocyclohexyl)methyl)-1-(2,2,2-trifluoroethyl)-1H-1,2,4-triazole-5-carboxamide]", "values": [{"measurement": "pIC50", "setting": "[1]", "value": 6.72}, {"measurement": "pIC50", "setting": "[2]", "value": 5.92}]}
{"smiles": "CC1(C)CC1C(=O)N[C@H](c1cn2ncc([C@H](NC(=O)CCC(F)(F)F)C3CC3)cc2n1)C1CCC(F)(F)CC1", "note": "(stereo partly drawn) [Example 62, N—((S)-(7-((R)-Cyclopropyl(4,4,4-trifluorobutanamido)methyl)imidazo[1,2-b]pyridazin-2-yl)(4,4-difluorocyclohexyl)methyl)-2,2-dimethylcyclopropane-1-carboxamide]", "values": [{"measurement": "pIC50", "setting": "[1]", "value": 6.08}, {"measurement": "pIC50", "setting": "[2]", "value": "~5.40"}]}
{"smiles": "O=C(CCC(F)(F)F)N[C@@H](c1cnn2cc([C@@H](NC(=O)c3cnn(CC4CC(F)(F)C4)n3)C3CCC(F)(F)CC3)nc2c1)C1CC1", "note": "[Example 63, N—((S)-(7-((R)-Cyclopropyl(4,4,4-trifluorobutanamido)methyl)imidazo[1,2-b]pyridazin-2-yl)(4,4-difluorocyclohexyl)methyl)-2-((3,3-difluorocyclobutyl)methyl)-2H-1,2,3-triazole-4-carboxamide]", "values": [{"measurement": "pIC50", "setting": "[1]", "value": 6.89}, {"measurement": "pIC50", "setting": "[2]", "value": 6.70}]}
{"smiles": "COCCn1ncc(C(=O)N[C@H](c2cn3ncc([C@H](NC(=O)CCC(F)(F)F)C4CC4)cc3n2)C2CCC(F)(F)CC2)n1", "note": "[Example 64, N—((S)-(7-((R)-Cyclopropyl(4,4,4-trifluorobutanamido)methyl)imidazo[1,2-b]pyridazin-2-yl)(4,4-difluorocyclohexyl)methyl)-2-(2-methoxyethyl)-2H-1,2,3-triazole-4-carboxamide]", "values": [{"measurement": "pIC50", "setting": "[1]", "value": 6.20}, {"measurement": "pIC50", "setting": "[2]", "value": 5.70}]}
{"smiles": "CC(C)n1nncc1C(=O)N[C@H](c1cn2ncc([C@H](NC(=O)CCC(F)(F)F)C3CC3)cc2n1)C1CCC(F)(F)CC1", "note": "[Example 65, N—((S)-(7-((R)-Cyclopropyl(4,4,4-trifluorobutanamido)methyl)imidazo[1,2-b]pyridazin-2-yl)(4,4-difluorocyclohexyl)methyl)-1-isopropyl-1H-1,2,3-triazole-5-carboxamide]", "values": [{"measurement": "pIC50", "setting": "[1]", "value": 6.96}, {"measurement": "pIC50", "setting": "[2]", "value": 7.14}]}
{"smiles": "Cn1nnc(C(=O)N[C@H](c2cn3ncc([C@H](NC(=O)CCC(F)(F)F)C4CC4)cc3n2)C2CCC(F)(F)CC2)c1C(F)F", "note": "[Example 66, N—((S)-(7-((R)-Cyclopropyl(4,4,4-trifluorobutanamido)methyl)imidazo[1,2-b]pyridazin-2-yl)(4,4-difluorocyclohexyl)methyl)-5-(difluoromethyl)-1-methyl-1H-1,2,3-triazole-4-carboxamide]", "values": [{"measurement": "pIC50", "setting": "[1]", "value": 6.64}, {"measurement": "pIC50", "setting": "[2]", "value": 5.46}]}
{"smiles": "O=C(CCC(F)(F)F)N[C@@H](c1cnn2cc([C@@H](NC(=O)c3ccnn3C(F)F)C3CCC(F)(F)CC3)nc2c1)C1CC1", "note": "[Example 67, N—((S)-(7-((R)-Cyclopropyl(4,4,4-trifluorobutanamido)methyl)imidazo[1,2-b]pyridazin-2-yl)(4,4-difluorocyclohexyl)methyl)-1-(difluoromethyl)-1H-pyrazole-5-carboxamide]", "values": [{"measurement": "pIC50", "setting": "[1]", "value": 7.09}, {"measurement": "pIC50", "setting": "[2]", "value": 6.74}]}
{"smiles": "O=C(CCC(F)(F)F)N[C@@H](c1cnn2cc([C@@H](NC(=O)c3cnnn3C3CC3)C3CCC(F)(F)CC3)nc2c1)C1CC1", "note": "[Example 68, 1-Cyclopropyl-N—((S)-(7-((R)-cyclopropyl(4,4,4-trifluorobutanamido)methyl)imidazo[1,2-b]pyridazin-2-yl)(4,4-difluorocyclohexyl)methyl)-1H-1,2,3-triazole-5-carboxamide]", "values": [{"measurement": "pIC50", "setting": "[1]", "value": 6.82}, {"measurement": "pIC50", "setting": "[2]", "value": 6.60}]}
{"smiles": "O=C(CCC(F)(F)F)N[C@@H](c1cnn2cc([C@@H](NC(=O)c3ccnn3C(CF)CF)C3CCC(F)(F)CC3)nc2c1)C1CC1", "note": "[Example 69, N—((S)-(7-((R)-Cyclopropyl(4,4,4-trifluorobutanamido)methyl)imidazo[1,2-b]pyridazin-2-yl)(4,4-difluorocyclohexyl)methyl)-1-(1,3-difluoropropan-2-yl)-1H-pyrazole-5-carboxamide]", "values": [{"measurement": "pIC50", "setting": "[1]", "value": 6.96}, {"measurement": "pIC50", "setting": "[2]", "value": 7.26}]}
{"smiles": "O=C(CCC(F)(F)F)N[C@@H](c1cnn2cc([C@@H](NC(=O)c3ncnn3CCOC(F)(F)F)C3CCC(F)(F)CC3)nc2c1)C1CC1", "note": "[Example 70, N—((S)-(7-((R)-Cyclopropyl(4,4,4-trifluorobutanamido)methyl)imidazo[1,2-b]pyridazin-2-yl)(4,4-difluorocyclohexyl)methyl)-1-(2-(trifluoromethoxy)ethyl)-1H-1,2,4-triazole-5-carboxamide]", "values": [{"measurement": "pIC50", "setting": "[1]", "value": 7.31}, {"measurement": "pIC50", "setting": "[2]", "value": 6.96}]}
{"smiles": "O=C(CCC(F)(F)F)N[C@@H](c1cnn2cc([C@@H](NC(=O)c3ccnc(CC(F)(F)F)c3)C3CCC(F)(F)CC3)nc2c1)C1CC1", "note": "[Example 74, N—((S)-(7-((R)-Cyclopropyl(4,4,4-trifluorobutanamido)methyl)imidazo[1,2-b]pyridazin-2-yl)(4,4-difluorocyclohexyl)methyl)-2-(2,2,2-trifluoroethyl)isonicotinamide]", "values": [{"measurement": "pIC50", "setting": "[1]", "value": 6.92}, {"measurement": "pIC50", "setting": "[2]", "value": 7.24}]}
{"smiles": "O=C(CCC(F)(F)F)N[C@@H](c1cnn2cc([C@@H](NC(=O)c3conc3C3CC3)C3CCC(F)(F)CC3)nc2c1)C1CC1", "note": "[Example 75, 3-Cyclopropyl-N—((S)-(7-((R)-cyclopropyl(4,4,4-trifluorobutanamido)methyl)imidazo[1,2-b]pyridazin-2-yl)(4,4-difluorocyclohexyl)methyl)isoxazole-4-carboxamide]", "values": [{"measurement": "pIC50", "setting": "[1]", "value": 7.30}, {"measurement": "pIC50", "setting": "[2]", "value": 7.04}]}
{"smiles": "CC(C)c1nocc1C(=O)N[C@H](c1cn2ncc([C@H](NC(=O)CCC(F)(F)F)C3CC3)cc2n1)C1CCC(F)(F)CC1", "note": "[Example 76, N—((S)-(7-((R)-Cyclopropyl(4,4,4-trifluorobutanamido)methyl)imidazo[1,2-b]pyridazin-2-yl)(4,4-difluorocyclohexyl)methyl)-3-isopropylisoxazole-4-carboxamide]", "values": [{"measurement": "pIC50", "setting": "[1]", "value": 7.17}, {"measurement": "pIC50", "setting": "[2]", "value": 7.17}]}
{"smiles": "O=C(CCC(F)(F)F)N[C@@H](c1cnn2cc([C@@H](NC(=O)c3conc3CCC(F)(F)F)C3CCC(F)(F)CC3)nc2c1)C1CC1", "note": "[Example 77, N—((S)-(7-((R)-Cyclopropyl(4,4,4-trifluorobutanamido)methyl)imidazo[1,2-b]pyridazin-2-yl)(4,4-difluorocyclohexyl)methyl)-3-(3,3,3-trifluoropropyl)isoxazole-4-carboxamide]", "values": [{"measurement": "pIC50", "setting": "[1]", "value": 7.30}, {"measurement": "pIC50", "setting": "[2]", "value": 7.22}]}
{"smiles": "Cc1cc(C(=O)N[C@H](c2cn3ncc([C@H](NC(=O)CCC(F)(F)F)C4CC4)cc3n2)C2CCC(F)(F)CC2)n(C(C)C)n1", "note": "[Example 78, N—((S)-(7-((R)-Cyclopropyl(4,4,4-trifluorobutanamido)methyl)imidazo[1,2-b]pyridazin-2-yl)(4,4-difluorocyclohexyl)methyl)-1-isopropyl-3-methyl-1H-pyrazole-5-carboxamide]", "values": [{"measurement": "pIC50", "setting": "[1]", "value": 6.59}, {"measurement": "pIC50", "setting": "[2]", "value": 6.48}]}
{"smiles": "Cc1nocc1C(=O)N[C@H](c1cn2ncc([C@H](NC(=O)CCC(F)(F)F)C3CC3)cc2n1)C1CCC(F)(F)CC1", "note": "[Example 79, N—((S)-(7-((R)-Cyclopropyl(4,4,4-trifluorobutanamido)methyl)imidazo[1,2-b]pyridazin-2-yl)(4,4-difluorocyclohexyl)methyl)-3-methylisoxazole-4-carboxamide]", "values": [{"measurement": "pIC50", "setting": "[1]", "value": 7.08}, {"measurement": "pIC50", "setting": "[2]", "value": 6.82}]}
{"smiles": "Cc1noc(C)c1C(=O)N[C@H](c1cn2ncc([C@H](NC(=O)CCC(F)(F)F)C3CC3)cc2n1)C1CCC(F)(F)CC1", "note": "[Example 80, N—((S)-(7-((R)-Cyclopropyl(4,4,4-trifluorobutanamido)methyl)imidazo[1,2-b]pyridazin-2-yl)(4,4-difluorocyclohexyl)methyl)-3,5-dimethylisoxazole-4-carboxamide]", "values": [{"measurement": "pIC50", "setting": "[1]", "value": 4.77}, {"measurement": "pIC50", "setting": "[2]", "value": "< 4.70"}]}
{"smiles": "Cc1noc(C(C)C)c1C(=O)N[C@H](c1cn2ncc([C@H](NC(=O)CCC(F)(F)F)C3CC3)cc2n1)C1CCC(F)(F)CC1", "note": "[Example 81, N—((S)-(7-((R)-Cyclopropyl(4,4,4-trifluorobutanamido)methyl)imidazo[1,2-b]pyridazin-2-yl)(4,4-difluorocyclohexyl)methyl)-5-isopropyl-3-methylisoxazole-4-carboxamide]", "values": [{"measurement": "pIC50", "setting": "[1]", "value": 5.25}, {"measurement": "pIC50", "setting": "[2]", "value": "< 4.70"}]}
{"smiles": "CCc1noc(C)c1C(=O)N[C@H](c1cn2ncc([C@H](NC(=O)CCC(F)(F)F)C3CC3)cc2n1)C1CCC(F)(F)CC1", "note": "[Example 82, N—((S)-(7-((R)-Cyclopropyl(4,4,4-trifluorobutanamido)methyl)imidazo[1,2-b]pyridazin-2-yl)(4,4-difluorocyclohexyl)methyl)-3-ethyl-5-methylisoxazole-4-carboxamide]", "values": [{"measurement": "pIC50", "setting": "[1]", "value": 5.52}, {"measurement": "pIC50", "setting": "[2]", "value": "< 4.70"}]}
{"smiles": "CCc1nocc1C(=O)N[C@H](c1cn2ncc([C@H](NC(=O)CCC(F)(F)F)C3CC3)cc2n1)C1CCC(F)(F)CC1", "note": "[Example 83, N—((S)-(7-((R)-Cyclopropyl(4,4,4-trifluorobutanamido)methyl)imidazo[1,2-b]pyridazin-2-yl)(4,4-difluorocyclohexyl)methyl)-3-ethylisoxazole-4-carboxamide]", "values": [{"measurement": "pIC50", "setting": "[1]", "value": 7.48}, {"measurement": "pIC50", "setting": "[2]", "value": 7.22}]}
{"smiles": "O=C(CCC(F)(F)F)N[C@@H](c1cnn2cc([C@@H](NC(=O)c3cnoc3C3CC3)C3CCC(F)(F)CC3)nc2c1)C1CC1", "note": "[Example 84, 5-Cyclopropyl-N—((S)-(7-((R)-cyclopropyl(4,4,4-trifluorobutanamido)methyl)imidazo[1,2-b]pyridazin-2-yl)(4,4-difluorocyclohexyl)methyl)isoxazole-4-carboxamide]", "values": [{"measurement": "pIC50", "setting": "[1]", "value": 7.10}, {"measurement": "pIC50", "setting": "[2]", "value": 6.80}]}
